pEC50: −log10 of the molar value. Where no end group is shown, it is not given here.
Experiments:
HLA-B7 = target: T1, HLA-B7 (Homo sapiens, UniProt P01889); assay: T2-B7 binding assay: stabilization of HLA-B7 molecules on the surface of T2-B7 cells, flow cytometry; conditions: for binding affinity for HLA-B7 compared with natural RS10 peptide: FIGS. 4 and 6; for pEC50: FIGS. 4 and 6, read-out: concentration required for a 50% increase in HLA-B7 expression
T1 construct: transfected with the HLA-B7 gene; expressed in transfected cells; host or cells: T2 (TAP1/TAP2-deficient hybrid B and T lymphoblastoid cell line) transfected with the HLA-B7 gene (T2.B7, gift of Peter Cresswell)
Experimental: A chromosomal translocation-generated fusion protein breakpoint peptide, RS10 (SPQNSIRHNL), is selected on the basis of predicted potential binding to HLA-B7 (Rammensee et al., Immunogenetics 41: 178-228 (1995)). Peptide binding to HLA-B7 is assessed by using stabilization of HLA-B7 molecules on the surface of T2-B7 cells that lack the TAP transporter and therefore express only short-lived empty HLA-B7 molecules unless a peptide is present that can bind and stabilize them. These assays are described in (Stuber et al., Eur. J. Immunol., 22, 2697-2703 (1992), Nijman et al., Eur. J. Immunol., 23, 1215-1219 (1993), Zeh et al., Hum. Immunol., 39, 79-86 (1994), and Smith et al., Internat. Immunol., 9, 1085-1093 (1997)). Cells of the TAP1/TAP2-deficient T2 cell line (Salter et al., Immunogenetics, 21, 235-246 (1985), and Spies et al., Nature, 351, 323-324 (1991)) transfected with the HLA-B7 gene are suspended in culture medium containing heat inactivated FCS (2.5% v/v) and added to 96-well round-bottomed plates at 2×10^5 cells/well. Human β2-microglobulin (Sigma Chemical Co.) is also added at 20 μg/well. Where appropriate, peptide is added to the desired concentration. The cells are then incubated overnight at 37° C. in 5% CO2, followed by washing with PBS containing NaN3 (0.5% w/v and FCS 2% v/v). Next, cells are incubated on ice for 30 min in the presence of primary anti-HLA-B7 specific antibody (BB7.1 hybridoma culture supernatant; ATCC), followed by washing and incubation for 30 min in goat anti-mouse immunoglobulin FITC (Becton Dickinson). Analysis is performed by flow cytometry.
Conventional mAb staining is conducted in PBS containing 0.01% sodium azide on ice. Cells are labeled with FITC- or PE-conjugated mAbs obtained from BD PharMingen (San Diego, Calif.). For each staining of interest, the appropriate isotype-matched control is included. All reagents are used at optimal concentration as determined experimentally. Flow cytometric analysis is performed with a FACScan (BD Biosciences, Mountain View, Calif.). Data are collected on 5000-10,000 viable cell events and analyzed with CellQuest software.

C1R-B7 target cells = assay: 4 h 51Cr release assay, RS10-specific human CTL line against peptide pulsed C1R-B7 target cells; assay type: cell-based; conditions: peptide pulsed at 10 μM, various E:T ratios, versus control peptide
Experimental: In particular, specific cytotoxic activities are determined in a standard 4 h ^51Cr release assay at various effector:target (E:T) ratios. Briefly, graded doses of viable effector cells are plated in triplicate in 96-well U-bottom culture plates (Corning Glass, Corning, N.Y.) and co-cultured for 4 h with sodium chromate-labeled (100 μCi; NEN, Boston, Mass.) peptide pulsed (10 μM) C1R-B7 target cells. In some experiments, the Rh5, RD and CTR tumor cell lines are used as a target. Supernatants are collected, radioactivity measured, and specific lysis is calculated according to the equation: percentage of specific cytotoxicity=(experimental cpm−spontaneous cpm)/(maximum cpm−spontaneous cpm)×100. Maximum ^51Cr release is determined from supernatants of lysed target cells incubated with Triton X-100 (5% v/v). Spontaneous release is determined from target cells incubated without added effector cells.

T1 sequence (P01889 25-362): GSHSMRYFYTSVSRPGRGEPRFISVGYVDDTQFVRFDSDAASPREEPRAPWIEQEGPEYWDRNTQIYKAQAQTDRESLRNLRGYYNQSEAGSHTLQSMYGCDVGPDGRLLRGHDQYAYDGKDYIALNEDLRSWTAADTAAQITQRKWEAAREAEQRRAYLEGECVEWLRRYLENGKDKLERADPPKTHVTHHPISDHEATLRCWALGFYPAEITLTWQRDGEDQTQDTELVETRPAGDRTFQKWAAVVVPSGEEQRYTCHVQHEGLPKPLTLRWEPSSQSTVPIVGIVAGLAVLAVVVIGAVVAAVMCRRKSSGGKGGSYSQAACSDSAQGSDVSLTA
T1 sequence (P61769 21-119 partner): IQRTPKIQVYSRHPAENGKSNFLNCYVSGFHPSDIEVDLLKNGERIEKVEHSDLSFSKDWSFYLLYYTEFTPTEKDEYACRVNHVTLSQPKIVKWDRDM

Row | Sequence | binding affinity for HLA-B7 compared with natural RS10 peptide (HLA-B7) | pEC50 (HLA-B7) | CTL lysis of peptide pulsed C1R-B7 target cells (C1R-B7 target cells)
1 | SPANSIRHNL [RS10-3A, SPANSIRHNL] | higher binding affinity for HLA-B7 than the natural RS10 peptide | ~7.30 | specific killing observed
2 | SPQNAIRHNL [RS10-5A] | higher binding affinity for HLA-B7 than the natural RS10 peptide |  | 
3 | SPQNSARHNL [RS10-6A] | higher binding affinity for HLA-B7 than the natural RS10 peptide |  | 
4 | SPQNSIRHNL [RS10, SPQNSIRHNL] |  | ~6.52 | 

From US9206245B2, “Immunogenic peptides and methods of use for treating and preventing cancer” (The United States of America, as represented by the …, priority 2005, dated 2015)
